Laboratory results taken from US20150031102A1, “METHODS AND COMPOSITIONS FOR ENHANCED PRODUCTION OF BUTANOL BY CLOSTRIDIA” (Butrolix LLC, priority 2012, published 2015).

System: C. acetobutylicum
Assay: Continuous culture, 2.5 L, dilution rate 0.01 per hour, 20 days (butanol, residual glucose, optical density, pH, yield, productivity)
Assay type: cell-based, Clostridium acetobutylicum
Conditions: for Productivity / Yield / Butanol: 50 nM peptide, Table 54; for Butanol: average ± SD of triplicate samples
Description: Lastly, 2.5 L continuous culture studies were conducted using the optimum peptide treatment level that was determined by the sequential batch transfer experiments. An untreated and a peptide-treated culture were grown in parallel, identical vessels with identical dilution rates for 20 days. The continuous cultures were initiated by inoculating 2.25 L of sterile medium in each culture vessel using 250 mL of peptide-treated and untreated batch cultures that had been grown for 24 hours. The batch cultures used as inoculum were the third of sequential batch transfer cultures, which made inoculation of the continuous cultures the fourth sequential transfer. After inoculation, the continuous cultures were grown for 24 hours before beginning to feed fresh medium at a rate of 0.01 volumes per hour. Triplicate samples were taken from each continuous culture every 24 hours. Optical density of the replicates was measured and culture supernatants were recovered following centrifugation and analyzed later for butanol and residual glucose concentrations. The analyses were used to calculate yield and productivity of the cultures.
Clostridium acetobutylicum strain ATCC 824 was used in all experiments and the growth medium used for sequential batch transfer, time course, and continuous culture experiments contained yeast extract, casamino acids, L-cysteine, L-asparagine, phosphate buffer, trace minerals, and 6% glucose. What are believed to be quorum-sensing peptides that were used in the experiments were chemically synthesized peptides SEQ ID NO: 143 (amino acid sequence: SYPGWSW) and SEQ ID NO: 144 (amino acid sequence: ILILISG). Routine growth of the bacteria as well as the sequential batch and time course experiments were conducted in a Form a Scientific Model 1029 anaerobic gas chamber at 32° C. Continuous cultures were performed at 32° C. using duplicate New Brunswick Scientific BioFlo 3000 apparati with a dilution rate of 0.01 volume per hour, 75 rpm agitation, and nitrogen gas sparging. Optical density of culture samples was measured at 600 nm in a Beckman DU 600 series spectrophotometer and glucose was analyzed using a YSI Model 2700 Select Biochemistry Analyzer with internal glucose calibration. Butanol concentrations were determined by measuring experimental and standard samples using a Varian Saturn 3 Gas Chromatograph/Mass Spectrometer and calculating butanol concentrations using standard curves.
Data from continuous cultures using a 6% glucose medium in vessels with a working volume of 2.5 L run at a dilution rate of 0.01 per hour. Two vessels were run in parallel, one of which was treated with 50 nM of peptide SEQ ID NO: 143 and the other was untreated. The vessels were sparged continuously with nitrogen gas to maintain anaerobic conditions and were agitated at 75 rpm. On Day 0, the vessels were inoculated with a 1/10 volume (250 mL) of overnight cultures that were either treated with peptide or untreated, and that were the third transfer of the cultures, which made inoculation of the continuous cultures the fourth transfer. Triplicate samples were collected aseptically from each vessel immediately after inoculation and every 24 hours thereafter. The cultures were allowed to grow for 24 hours prior to beginning to feed fresh medium, and were maintained for 20 days each, without pH control. The optical density of each sample was measured immediately at 600 nm, the samples were centrifuged to remove cells, and the cell-free supernatants were frozen for later analysis. A representative experiment is shown in FIG. 19 and Tables 34 and 35.
Using the optimum peptide treatment level that was determined by the sequential batch transfer experiments, 2.5 L continuous culture studies were conducted. An untreated and a peptide-treated culture were grown in parallel, identical vessels using the same dilution rates for 20 days for each of the peptides BP110517 and BP1106213. […]

[1] = 24 hour period preceding day 10
[2] = 24 hour period preceding day 11
[3] = 24 hour period preceding day 12
[4] = 24 hour period preceding day 13
[5] = 24 hour period preceding day 14
[6] = 24 hour period preceding day 15
[7] = 24 hour period preceding day 16
[8] = 24 hour period preceding day 17
[9] = 24 hour period preceding day 18
[10] = 24 hour period preceding day 19
[11] = 24 hour period preceding day 20

ILILISG (Derived from Clostridium acetobutylicum SEQ ID NO: 110) [peptide SEQ ID NO: 144]
Butanol content compared with the untreated culture (50 nM BP1106213, starting at day 2 and throughout the rest of the study): untreated culture remained significantly higher
pH (50 nM BP1106213 and its untreated control, after the first 4 days, for the duration of both cultures): ~4.2
Optical density (600 nm) (50 nM BP1106213 and its untreated control, almost the complete duration of the cultures): above 2.0
Glucose consumption (50 nM BP1106213 and untreated, day three through the end of the study): entirely consumed
Productivity (24 hour period preceding day 1): 0.53 g Butanol/L-h
Yield (24 hour period preceding day 1): 0.19 g Butanol/g Glucose
Productivity (24 hour period preceding day 2): −0.17 g Butanol/L-h
Yield (24 hour period preceding day 2): −0.28 g Butanol/g Glucose
Productivity (24 hour period preceding day 3): 0.07 g Butanol/L-h
Yield (24 hour period preceding day 3): 0.11 g Butanol/g Glucose
Productivity (24 hour period preceding day 4): 0.29 g Butanol/L-h
Yield (24 hour period preceding day 4): 0.46 g Butanol/g Glucose
Productivity (24 hour period preceding day 5): 0.24 g Butanol/L-h
Yield (24 hour period preceding day 5): 0.39 g Butanol/g Glucose
Productivity (24 hour period preceding day 6): 0.07 g Butanol/L-h
Yield (24 hour period preceding day 6): 0.11 g Butanol/g Glucose
Productivity (24 hour period preceding day 7): 0.14 g Butanol/L-h
Yield (24 hour period preceding day 7): 0.23 g Butanol/g Glucose
Productivity (24 hour period preceding day 8): 0.06 g Butanol/L-h
Yield (24 hour period preceding day 8): 0.10 g Butanol/g Glucose
Productivity (24 hour period preceding day 9): 0.07 g Butanol/L-h
Yield (24 hour period preceding day 9): 0.11 g Butanol/g Glucose
Productivity [1]: 0.00 g Butanol/L-h
Yield [1]: 0.01 g Butanol/g Glucose
Productivity [2]: 0.20 g Butanol/L-h
Yield [2]: 0.33 g Butanol/g Glucose
Productivity [3]: 0.02 g Butanol/L-h
Yield [3]: 0.04 g Butanol/g Glucose
Productivity [4]: −0.11 g Butanol/L-h
Yield [4]: −0.18 g Butanol/g Glucose
Productivity [5]: 0.00 g Butanol/L-h
Yield [5]: 0.00 g Butanol/g Glucose
Productivity [6]: 0.03 g Butanol/L-h
Yield [6]: 0.05 g Butanol/g Glucose
Productivity [7]: 0.11 g Butanol/L-h
Yield [7]: 0.17 g Butanol/g Glucose
Productivity [8]: −0.01 g Butanol/L-h
Yield [8]: −0.02 g Butanol/g Glucose
Productivity [9]: 0.01 g Butanol/L-h
Yield [9]: 0.01 g Butanol/g Glucose
Productivity [10]: 0.06 g Butanol/L-h
Yield [10]: 0.09 g Butanol/g Glucose
Productivity [11]: 0.01 g Butanol/L-h
Yield [11]: 0.01 g Butanol/g Glucose
Butanol (day 0): 0.6 ± 0.0 g/L
Butanol (day 1): 7.0 ± 0.5 g/L
Butanol (day 2): 8.2 ± 0.9 g/L
Butanol (day 3): 6.9 ± 0.6 g/L
Butanol (day 4): 5.0 ± 0.2 g/L
Butanol (day 5): 4.6 ± 0.3 g/L
Butanol (day 6): 5.2 ± 0.2 g/L
Butanol (day 7): 4.9 ± 0.2 g/L
Butanol (day 8): 5.6 ± 0.0 g/L
Butanol (day 9): 5.1 ± 0.1 g/L
Butanol (day 10): 5.1 ± 0.0 g/L
Butanol (day 11): 5.2 ± 0.2 g/L
Butanol (day 12): 5.1 ± 0.1 g/L
Butanol (day 13): 5.0 ± 0.1 g/L
Butanol (day 14): 5.4 ± 0.1 g/L
Butanol (day 15): 5.5 ± 0.1 g/L
Butanol (day 16): 5.5 ± 0.1 g/L
Butanol (day 17): 5.3 ± 0.1 g/L
Butanol (day 18): 5.1 ± 0.2 g/L
Butanol (day 19): 4.3 ± 0.2 g/L
Butanol (day 20): 2.9 ± 0.1 g/L
Effect on differentiation and butanol production (continuous cultures): strong inhibitor of differentiation and butanol production
